Three molecules from patent US8735433B1, “Aryl oxadiazole derivatives as sphingosine 1-phosphate (S1P) receptor modulators” (Allergan, Inc., priority 2012, dated 2014) can be followed below.

This test concerns the target T1, human S1P1 receptor (Homo sapiens, UniProt P21453).
T1 construct: expressed in transfected cells; membrane preparation
The test can be described thus: GTP γ35S binding assay for S1P1 activity. In kind it is biochemical. To be noted: membranes of cells stably expressing the S1P1 receptor, test compounds 0.08 to 5,000 nM, 30 min at 25° C. As to the method:
Compounds were synthesized and tested for S1P1 activity using the GTP γ^35S binding assay. These compounds may be assessed for their ability to activate or block activation of the human S1P1 receptor in cells stably expressing the S1P1 receptor.
GTP γ^35S binding was measured in the medium containing (mM) HEPES 25, pH 7.4, MgCl2 10, NaCl 100, dithitothreitol 0.5, digitonin 0.003%, 0.2 nM GTP γ^35S, and 5 μg membrane protein in a volume of 150 μl. Test compounds were included in the concentration range from 0.08 to 5,000 nM unless indicated otherwise. Membranes were incubated with 100 μM 5′-adenylylimmidodiphosphate for 30 min, and subsequently with 10 μM GDP for 10 min on ice. Drug solutions and membrane were mixed, and then reactions were initiated by adding GTP γ^35S and continued for 30 min at 25° C. Reaction mixtures were filtered over Whatman GF/B filters under vacuum, and washed three times with 3 mL of ice-cold buffer (HEPES 25, pH7.4, MgCl2 10 and NaCl 100). Filters were dried and mixed with scintillant, and counted for ^35S activity using a β-counter. Agonist-induced GTP γ^35S binding was obtained by subtracting that in the absence of agonist. Binding data were analyzed using a non-linear regression method. In case of antagonist assay, the reaction mixture contained 10 nM S1P in the presence of test antagonist at concentrations ranging from 0.08 to 5000 nM.
A general note: GTPγS resists hydrolysis and so accumulates on activated G proteins.

T1 sequence (P21453 whole entry): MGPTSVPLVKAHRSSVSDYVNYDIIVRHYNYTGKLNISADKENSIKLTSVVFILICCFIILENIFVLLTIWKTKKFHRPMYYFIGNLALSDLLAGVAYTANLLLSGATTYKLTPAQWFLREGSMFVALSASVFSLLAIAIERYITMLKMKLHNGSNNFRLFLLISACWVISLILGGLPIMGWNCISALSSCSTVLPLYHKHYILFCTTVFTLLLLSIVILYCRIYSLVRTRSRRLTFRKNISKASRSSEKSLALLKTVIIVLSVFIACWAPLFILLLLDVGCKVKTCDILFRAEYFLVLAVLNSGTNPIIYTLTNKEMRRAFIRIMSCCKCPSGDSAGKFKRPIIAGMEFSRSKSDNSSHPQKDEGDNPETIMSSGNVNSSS

By EC50 is commonly meant the concentration giving half of the maximal effect. `Cc1ccc(CC(c2nc(-c3ccc(CCC(N)(CO)CO)cc3)no2)c2cccs2)cc1C` (stereo not drawn) had an EC50 of 1210 nM.
In turn, `Cc1ccc(CC(c2cccc(Cl)c2)c2nc(-c3ccc(CCC(N)(CO)CO)cc3)no2)cc1C` (stereo not drawn) [2-amino-2-[2-(4-{5-[1-(3-chlorophenyl)-2-(3,4-dimethylphenyl)ethyl]-1,2,4-oxadiazol-3-yl}phenyl)ethyl]propane-1,3-diol] had an EC50 of 175 nM.
Regarding `Cc1ccc(CC(c2cc(F)cc(F)c2)c2nc(-c3ccc(CCC(N)(CO)CO)cc3)no2)cc1C` (stereo not drawn) [Compound 1, 2-amino-2-[2-(4-{5-[1-(3,5-difluorophenyl)-2-(3,4-dimethylphenyl)ethyl]-1,2,4-oxadiazol-3-yl}phenyl)ethyl]propane-1,3-diol], a half-maximal effect (EC50) was put at 87.2 nM.
